Measurements taken from US8173598B2, “Myeloid protein activation of anti-inflammatory and anti-hypoxic pathway” (The Board of Trustees of the University of Illinois, priority 2008, dated 2012).
No end group written: not given here.

How the values were obtained:
[1] = test system: Human peripheral neutrophils; experiment: Spontaneous oxidative activation of neutrophils (DCFH-DA oxidation); type: cell-based; conditions: for rate of oxidation of the DCFH probe with soluble PAR ligands: soluble peptides given as 100 mM (FIG. 5); for rate of spontaneous oxidation of the DCFH-DA probe: 2.5 to 10 μg/ml of protein, followed over time, p <0.001 to <0.05; for oxidative metabolism (fluorescence emission of DCFH-DA probe): 1 h time point, all concentrations tested, P<0.05 compared to control; for spontaneous oxidation of the DCFH probe with protease inhibitors: α1 antichymotrypsin and elafin printed as 10 mM (FIG. 4)
Excerpt: (§1) Human peripheral neutrophils were isolated from heparinized blood donated by healthy volunteers according to a protocol approved by the University of Illinois Institutional Review Board. The cells were isolated using a Histopaque™ gradient (Sigma) according to the manufacturer's instructions. Cell viability and identity was confirmed by trypan blue staining. Live cells and neutrophils represented at least 95% of isolated leukocytes.
(§2) The method for the measurement of oxidative activation of neutrophils was based on the ROS-dependent oxidation of DCFH-DA to DCF and was adapted from Ciapetti et al. DCFH-DA crosses the cell membrane and is hydrolyzed by nonspecific esterases to nonfluorescent DCFH. Its oxidation by ROS results in the generation of highly fluorescent DCF [30]. DCFH-DA is therefore a widely accepted probe for the measurement of an overall index of oxidative activity. DCFH-DA was purchased from Calbiochem (Madison, Wis.). The assays were run in clear bottom black 96-well plate. “Edge effects” (a higher fluorescence in edge wells) were avoided by using only center wells. Briefly, 50 μl of Dulbecco's Phosphate Buffered Saline (DPBS) containing DCFH-DA was added to each well with the final concentration of […]. S100 proteins or PKC inhibitors were diluted in the wells. Just before a baseline reading 100,000 neutrophils in 50 μl PBS were placed in each well. 96-well plates were incubated at 37° C. and 5% CO2 and were read at baseline (immediately after cell addition to the plates) and at indicated time points in a Spectra Max Gemini XS fluorescent plate reader. The excitation wavelength was 485 and the reading was done at 530 nm. Wells with no DCFH-DA were used to measure background fluorescence which was subtracted from each reading. Controls with no cells were also analyzed and display no increased fluorescence over time. All assays were conducted in triplicate or quadruplicate wells.
In order to avoid differences between donors, experimental procedures and plate to plate variation, all experimental conditions and statistical analysis were run within one plate inclusive of all positive and negative controls. Single sample t-tests were calculated to test the S100A8, S100A9 and combined proteins in comparison to the control wells with alpha set to ≦0.05 to determine statistical significance. Comparisons between the S100A8, S100A9 and combined proteins were calculated with two sample t-tests using SPSS (SPSS Inc., Chicago, Ill.) with alpha set to ≦0.05 to determine statistical relevance.

[2] = test system: Human peripheral neutrophils; experiment: PMA induced activation of neutrophil oxidative metabolism (DCFH-DA oxidation); type: cell-based
Excerpt: as §1, §2

[3] = test system: Human peripheral neutrophils; experiment: LPS stimulated neutrophil oxidative metabolism (DCFH-DA oxidation); type: cell-based
Excerpt: as §1, §2

[4] = test system: thrombin receptors; experiment: Calcium flux and thrombin-S100A8/A9 cross-desensitization in Chem-3 cells; type: cell-based; conditions: for calcium flux in Chem-3 cells: each alone
Description: (§3) Screening for S100A8 and S100A9 activity on thrombin receptors including thrombin receptor desensitization were conducted with calcium flux assays in Chem 3 and PAR-4 expressing Chem.-1 cells by Millipore's GPCRProfiler(R) Service (Millipore, St. Charles, Mo.; see website Millipore website on the internet).

[5] = target: T1, PAR-4 (Homo sapiens, UniProt Q96RI0); experiment: Calcium flux and desensitization to thrombin in PAR-4 expressing Chem.-1 cells; type: cell-based
T1 construct: host or cells: Chem-1 cells
T1 sequence (Q96RI0 18-385): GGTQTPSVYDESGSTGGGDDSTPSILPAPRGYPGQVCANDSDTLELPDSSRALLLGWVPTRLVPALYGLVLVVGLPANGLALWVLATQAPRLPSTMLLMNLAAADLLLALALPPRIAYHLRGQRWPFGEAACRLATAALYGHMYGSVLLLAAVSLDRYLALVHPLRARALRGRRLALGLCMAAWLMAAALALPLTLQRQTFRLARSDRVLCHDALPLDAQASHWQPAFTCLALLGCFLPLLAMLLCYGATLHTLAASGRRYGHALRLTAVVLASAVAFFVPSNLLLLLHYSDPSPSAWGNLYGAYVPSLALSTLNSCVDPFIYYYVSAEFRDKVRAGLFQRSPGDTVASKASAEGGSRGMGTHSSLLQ
Description: as §3

[6] = test system: neutrophils; conditions: in-vitro; Sroussi et al., 2006, 2007; cited from earlier work
[7] = 0.01 mU/ml ADA1, S100 proteins 10 to 2.5 μg/ml

CN(C)CCCn1cc(C2=C(c3c[nH]c4ccccc34)C(=O)NC2=O)c2ccccc21 [GFX, Bisindolylmaleimide I, reference compound]
spontaneous activation of neutrophils oxidative metabolism ([1]; 5 μM GFX): significantly inhibited both the PMA induced and the spontaneous activation of neutrophils oxidative metabolism | PMA induced activation of neutrophils oxidative metabolism ([2]; 5 μM GFX, 1 μM PMA): significantly inhibited both the PMA induced and the spontaneous activation of neutrophils oxidative metabolism

CCCCCCCCCCCCCC(=O)O[C@@H]1[C@@H](C)[C@@]2(O)[C@@H](C=C(CO)C[C@]3(O)C(=O)C(C)=C[C@@H]23)[C@@H]2C(C)(C)[C@]12OC(C)=O [PMA, phorbol 12-myristate 13-acetate, reference compound]
rate of DCFH oxidation by a PKC activator ([1]; 1 μM PMA): significantly accelerated the rate of DCFH oxidation

COc1ccccc1NC(=O)Nc1nc(-c2cccnc2)nc2ccccc12 [VUF5574, N-(2-methoxyphenyl)-N′-[2-(3-pyridinyl)-4-quinazolinyl]-urea, reference compound]
effect on anti-oxidative effect of S100A8, spontaneous oxidative metabolism ([1]; 2.5 μg/ml S100A8, 1 hour): produces a dose sensitive inhibition the anti-oxidative effect of S100A8 on neutrophil spontaneous oxidative metabolism | effect on anti-oxidative effect of S100A8 and S100A9, LPS exposed neutrophils ([3]; 10 μM, 10 μg/ml LPS): This anti-oxidative effect was countered

GYPGQV-NH2 [PAR-4, reference compound]
rate of oxidation of the DCFH probe with soluble PAR ligands [1]: resulted in a significantly accelerated rate of oxidation of the DCFH probe

S100A9: recombinant human S100A9 calcium binding protein, expressed in Escherichia coli as GST fusion, GST tag cleaved
rate of spontaneous oxidation of the DCFH-DA probe [1]: reduced the rate at which spontaneous oxidation of the DCFH-DA probe occurred in a dose dependent manner | oxidative metabolism (fluorescence emission of DCFH-DA probe) [1]: significantly inhibited oxidative metabolism at all concentrations tested | PMA activation of neutrophils ([2]; dose dependent): produced a dose dependent inhibition of PMA activation of neutrophils | LPS stimulation of neutrophil oxidative activity ([3]; 2.5 to 10 μg/ml of protein, LPS 10 μg/ml): strongly inhibited LPS stimulation of neutrophil oxidative activity | calcium flux in Chem-3 cells [4]: trigger calcium flux in Chem-3 cells in a dose dependent manner | calcium flux in PAR-4 expressing cells ([5]; data not shown): activated calcium flux in those cells | desensitization of PAR-4 expressing cells to thrombin activation ([5]; previous treatment with different concentrations, then 10 nM thrombin): dose dependently desensitized PAR-4 expressing cells to thrombin activation | neutrophil chemotaxis toward bacterial products (formylated peptides) [6]: inhibit neutrophil chemotaxis toward bacterial products

SLIGKV-NH2 [PAR-2, reference compound]
rate of oxidation of the DCFH probe with soluble PAR ligands [1]: not PAR-1, PAR-2 or PAR-3

TFLLRN [PAR-1, reference compound]
rate of oxidation of the DCFH probe with soluble PAR ligands [1]: not PAR-1, PAR-2 or PAR-3

TFRGAP-NH2 [PAR-3, reference compound]
rate of oxidation of the DCFH probe with soluble PAR ligands [1]: not PAR-1, PAR-2 or PAR-3

elafin: inhibitor of PR3 and elastase (AQEPVKGPVSTKPGSCPIILIRCAMLNPPNRCLKDTDCPGIKKCCEGSCGMACFVPQ; ends and bridges not checked; cysteine pairing not given here; UniProt P19957 61-117, looked up) [reference compound]
spontaneous oxidation of the DCFH probe with protease inhibitors [1]: no effect on DCFH oxidation

thrombin [reference compound]
desensitization of Chem-3 cells to S100A8 or S100A9 stimulation ([4]; 10 nM thrombin first, then 10 μM S100A8 or 10 μM S100A9): resulted in a desensitization of Chem-3 cells to further stimulation | calcium flux in Chem-3 cells [4]: trigger calcium flux in Chem-3 cells in a dose dependent manner

B1: calprotectin: mixture of S100A8 and S100A9 at a 1:1 weight ratio referred to as calprotectin (protein)
chain 1: MLTELEKALNSIIDVYHKYSLIKGNFHAVYRDDLKKLLETECPQYIRKKGADVWFKELDINTDGAVNFQEFLILVIKMGVAAHKKSHEESHKE
chain 2: MTCKMSQLERNIETIINTFHQYSVKLGHPDTLNQGEFKELVRKDLQNFLKKENKNEKVIEHIMEDLDTNADKQLSFEEFIMLMARLTWASHEKMHEGDEGPGHHHKPGLGEGTP
rate of spontaneous oxidation of the DCFH-DA probe [1]: reduced the rate at which spontaneous oxidation of the DCFH-DA probe occurred in a dose dependent manner | oxidative metabolism (fluorescence emission of DCFH-DA probe) [1]: significantly inhibited oxidative metabolism at all concentrations tested

B2: ADA1: Human adenosine deaminase from human erythrocytes; deaminates adenosine to inosine (protein, UniProt P00813 2-363, looked up)
Adenosine deaminase: AQTPAFDKPKVELHVHLDGSIKPETILYYGRRRGIALPANTAEGLLNVIGMDKPLTLPDFLAKFDYYMPAIAGCREAIKRIAYEFVEMKAKEGVVYVEVRYSPHLLANSKVEPIPWNQAEGDLTPDEVVALVGQGLQEGERDFGVKARSILCCMRHQPNWSPKVVELCKKYQQQTVVAIDLAGDETIPGSSLLPGHVQAYQEAVKSGIHRTVHAGEVGSAEVVKEAVDILKTERLGHGYHTLEDQALYNRLRQENMHFEICPWSSYLTGAWKPDTEHAVIRLKNDQANYSLNTDDPLIFKSTLDTDYQMTKRDMGFTEEEFKRLNINAAKSSFLPEDEKRELLDLLYKAYGMPPSASAGQNL
effect on S100A8/S100A9 inhibition of spontaneous oxidative metabolism [1, 7]: partially or fully abrogated | effect on S100A8/S100A9 inhibition of LPS stimulated oxidative metabolism [3, 7]: partially or fully abrogated

B3: α1 antichymotrypsin: α1-Antichymotrypsin from human plasma; inhibits cathepsin G (protein)
chain: HPNSPLDEENLTQENQDRGTHVDLGLASANVDFAFSLYKQLVLKAPDKNVIFSPLSISTALAFLSLGAHNTTLTEILKGLKFNLTETSEAEIHQSFQHLLRTLNQSSDELQLSMGNAMFVKEQLSLLDRFTEDAKRLYGSEAFATDFQDSAAAKKLINDYVKNGTRGKITDLIKDLDSQTMMVLVNYIFFKAKWEMPFDPQDTHQSRFYLSKKKWVMVPMMSLHHLTIPYFRDEELSCTVVELKYTGNASALFILPDQDKMEEVEAMLLPETLKRWRDSLEFREIGELYLPKFSISRDYNLNDILLQLGIEEAFTSKADLSGITGARNLAVSQVVHKAVLDVFEEGTEASAATAVKITLLSALVETRTIVRFNRPFLMIIVPTDTQNIFFMSKVTNPKQA
spontaneous oxidation of the DCFH probe with protease inhibitors [1]: caused a marked and significant reduction in the oxidation of the DCFH probe
